Two compounds from article PMC5515887, “Ruthenium-conjugated chrysin analogues modulate platelet activity, thrombus formation and haemostasis with enhanced efficacy” (Scientific Reports, 2017) can be followed below.

Read-outs that look alike come from different tables or passages of the source. Bounds are passed on as bounds.

The subject of series [1] is outside-in signalling by integrin αIIbβ3. The experiment in a line: Clot retraction assay (outside-in signalling by integrin αIIbβ3). The class given is cell-based, human. To be noted: PRP; 50 μM compound; 1 U/mL thrombin; three hours. On the procedure: R represents ‘resting’ platelets.
Following fibrinogen binding, integrin αIIbβ3 triggers signalling into the platelets in order to induce clot retraction and promote wound healing. This also represents a late downstream signalling event in the platelet activation process. To determine whether chrysin and its derivatives affect outside-in signalling by integrin αIIbβ3, a clot retraction assay was performed. […] At three hours, the clot obtained with the vehicle control [0.1% (v/v) DMSO] retracted to around 50 mg.
PRP (200 µL) was mixed with 5 µL of red blood cells and the final volume was made to 950 µL with modified Tyrodes-HEPES buffer in the presence and absence of various concentrations of chrysin or its synthetic derivatives. Clot formation was initiated by adding 1 U/mL (50 µL) thrombin. A glass capillary was placed in middle of the tube and the clot retraction was observed over a period of 3 hours at room temperature. Clot weight was measured as a marker for clot retraction after 3 hours.

In series [2] the test system is α-granule secretion in platelets. Description: P-selectin exposure by flow cytometry (marker for α-granule secretion). The class given is cell-based, human. The note with it: PRP, CRP-XL 0.5 μg/mL. The method, then: Platelets primarily contain two types of granules (α- and dense granules) and the activation of platelets releases the granule contents to the external environment, where they play important roles in the stimulation of additional platelets and their recruitment to the growing thrombus. […] However, chrysin affected α-granule secretion only at a minimum concentration of 50 μM in platelets.
(§1) Figure 5 Chrysin and its derivatives affect granule secretion in platelets. […] The level of P-selectin (as a marker for α-granule secretion) was quantified using PECy5-labelled anti-human P-selectin antibodies by flow cytometry. […] R represents ‘resting’ platelets. […] Platelets were then activated with 0.5 μg/mL CRP-XL and the ATP release was monitored for 5 minutes by lumi-aggregometry. The traces shown are representative of three separate experiments.

In series [3] the test system is dense granule secretion in washed platelets. The experiment in a line: ATP release by lumi-aggregometry (marker for dense granule secretion). Format: cell-based, human. The note with it: 100 μM compound, CRP-XL 0.5 μg/mL. On the procedure:
as §1
The preparation of human platelets and aggregation assays were performed using standard protocols as described by us previously, [16]. Briefly, human blood was collected in 3.2% citrate containing vacutainers via venepuncture from healthy, aspirin-free individuals with informed consent in accordance with the methods approved by the University of Reading Research Ethics Committee. All methods were performed in accordance with the relevant institutional and national guidelines and regulations. Blood samples were centrifuged at 102 g for 20 minutes at room temperature to separate the PRP, which was used in aggregation, flow cytometry, static platelet adhesion, calcium mobilisation and clot retraction assays. […] Dense granule secretion in platelets was determined by measuring the ATP release using the luciferin-luciferase reagent by lumi-aggregometry (Chrono-Log, USA). […]

A further series has as its system haemostasis in mice. Description: Tail bleeding assay. The class given is in vivo, C57BL/6 mice. The note with it: final concentration 25 μM via femoral artery, 5 minutes before tail tip dissection, control 445 seconds. The method, then: Thrombus formation was monitored by capturing Z-stack fluorescent images at every 30 seconds over 10 minutes by fluorescence microscopy. The images shown (A) at different time points and traces (B) are representative of three separate experiments. […] Data represent ± S.D. (n = 8 mice in each group). The p values shown (*p < 0.05 and ***p < 0.001) are as calculated by non-parametric Mann-Whitney test using Graphpad Prism.
Following five minutes incubation, 1 mm of tail tip was dissected and the bleeding time was monitored.
The University of Reading Local Ethical Review Panel and the British Home Office approved the tail-bleeding assay performed in this study. All methods were performed in accordance with the relevant guidelines and regulations. In brief, C57BL/6 mice (9 weeks old; Envigo, UK) were anaesthetized using ketamine (80 mg kg^−1) and xylazine (5 mg kg^−1) administered via intraperitoneal route 20 minutes prior to the experiment and placed on a heated pad (37 °C). […] The tail tip was placed in sterile saline at 37 °C and the time to cessation of bleeding was measured up to 20 minutes.

The subject of the next series is human washed platelets. Description: CRP-XL-induced aggregation of human washed platelets (optical aggregometry). To be noted: CRP-XL 0.5 μg/mL. Format: cell-based. On the procedure:
To determine the effects of chrysin and thio-chrysin and their Ru-complexes in the modulation of platelet activation, aggregation assays were performed using cross-linked collagen-related peptide (CRP-XL) as a platelet agonist, by optical aggregometry. Firstly, to determine the effects of chrysin and its derivatives on isolated platelets, aggregation assays were performed using human washed platelets (devoid of plasma proteins and other blood cells).
Figure 2 Effects of chrysin and its derivatives in washed platelet aggregation. […] The aggregation traces shown are representative of three separate experiments.
The preparation of human platelets and aggregation assays were performed using standard protocols as described by us previously, [16]. Briefly, human blood was collected in 3.2% citrate containing vacutainers via venepuncture from healthy, aspirin-free individuals with informed consent in accordance with the methods approved by the University of Reading Research Ethics Committee. All methods were performed in accordance with the relevant institutional and national guidelines and regulations. Blood samples were centrifuged at 102 g for 20 minutes at room temperature to separate the PRP, which was used in aggregation, flow cytometry, static platelet adhesion, calcium mobilisation and clot retraction assays. For the preparation of washed platelets, 50 mL of blood samples were mixed with 7.5 mL of ACD (acid citrate dextrose) (20 g/L glucose, 25 g/L sodium citrate and 15 g/L citric acid) and centrifuged at 102 g for 20 minutes at room temperature. The PRP was carefully aspirated from the other blood cells prior to mixing with 3 mL of ACD and centrifuging at 1413 g for 10 minutes at room temperature. The resulting platelet pellet was re-suspended in modified Tyrodes-HEPES buffer (2.9 mM KCl, 134 mM NaCl, 0.34 mM Na2HPO4.12H20, 1 mM MgCl2, 12 mM NaHCO3, 20 mM HEPES, pH 7.3) and washed by centrifuging again at 1413 g for 10 minutes. The resulting platelet pellet was suspended in modified Tyrodes-HEPES buffer at a density of 4 × 10^8 cells/mL for aggregation, dense granule secretion, cellular uptake studies and calcium mobilisation assays. Human platelet aggregation was performed using CRP-XL as an agonist in the presence and absence of various concentrations of chrysin and its synthetic derivatives by optical aggregometry. A vehicle control [DMSO at a concentration of less than 0.1% (v/v)] was included in all the experiments. Dense granule secretion in platelets was determined by measuring the ATP release using the luciferin-luciferase reagent by lumi-aggregometry (Chrono-Log, USA). SDS-PAGE and immunoblotting analysis were performed using standard protocols. The rabbit anti-phospho-specific antibodies for human AKT pS473, FAK pY397 and Src pY527 were obtained from Abcam, UK and rabbit anti-human 14-3-3ζ (Santa Cruz Biotechnology, USA) was used to detect protein 14-3-3ζ as a loading control in immunoblot assays. The Cy5-conjugated goat anti-rabbit IgG (Life technologies, UK) was used as the secondary antibody.

In series [4] the target is T1, human serum albumin (HSA) (Homo sapiens, UniProt P02768).
T1 construct: purchased Sovicell, Germany
T1 sequence (P02768 25-609): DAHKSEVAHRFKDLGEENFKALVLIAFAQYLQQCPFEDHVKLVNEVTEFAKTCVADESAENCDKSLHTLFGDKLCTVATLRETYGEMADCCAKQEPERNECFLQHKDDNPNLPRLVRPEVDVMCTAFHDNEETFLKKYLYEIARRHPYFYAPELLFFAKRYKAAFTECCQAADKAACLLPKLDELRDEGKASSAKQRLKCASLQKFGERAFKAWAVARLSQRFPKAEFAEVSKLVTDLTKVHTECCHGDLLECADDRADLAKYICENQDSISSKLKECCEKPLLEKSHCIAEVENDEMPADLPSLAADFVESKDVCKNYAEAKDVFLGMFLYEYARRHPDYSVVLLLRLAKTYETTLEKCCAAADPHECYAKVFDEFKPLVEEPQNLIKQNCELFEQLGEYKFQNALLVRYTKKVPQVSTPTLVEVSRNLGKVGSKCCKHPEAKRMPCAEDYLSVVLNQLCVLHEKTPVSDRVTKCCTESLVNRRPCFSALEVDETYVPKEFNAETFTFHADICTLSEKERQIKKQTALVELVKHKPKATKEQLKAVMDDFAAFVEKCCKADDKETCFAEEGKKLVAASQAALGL
The experiment in a line: HSA binding assay (TRANSIL XL HSA binding kit). The method, then:
HSA binding assay was performed using TRANSIL^XL binding kit (Sovicell, Germany) according to the manufacturer’s protocol. […] The plate was then incubated on a plate shaker at 100 g for 12 minutes followed by centrifugation for 10 minutes at 750 g.

In the case of `O=c1cc(-c2ccccc2)oc2cc(O)cc(O)c12` [chrysin], the “effect on clot retraction” value in series [1] is given as “did not show significant effects”. The “concentrations that significantly inhibit α-granule secretion” value in series [2] was at least 50 µM. The inhibition at 100 µM in series [3] (Homo sapiens, Platelet) was 100%. In addition, the “bleeding time (average)” value with haemostasis in mice came out at 901 s. Also, in the series with human washed platelets (6.25 μM compound), the “reduction in CRP-XL-induced platelet aggregation” value was “approximately 80%”. The “effect on CRP-XL-induced platelet aggregation in washed platelets” value in the series on human washed platelets is “inhibited CRP-XL (0.5 μg/mL)-induced aggregation in washed platelets in a concentration-dependent manner”. The compound also returned a Kd in series [4] of 1.93 µM. This compound had a fraction unbound at 12 min, 50 µM in series [4] (human, plasma) of 0.003.

On to “chlorido [(5-oxo-κO)-7-hydroxy-(2-phenyl)-4H-chromen-4-thionato-κS] (η6-p-cymene)ruthenium(II) [Ru-thio-chrysin]”, for which the “effect on clot retraction” value in series [1] is reported as “superior effects in comparison to native chrysin”. The “inhibition of α-granule secretion (P-selectin)” value in series [2] (100 μM compound) was “approximately 80%”. In addition, the “concentrations that significantly inhibit α-granule secretion” value in series [2] is at least 12.5 µM. Besides, the “inhibition of dense granule secretion (ATP release)” value in series [3] is listed as 100%. The “bleeding time (average)” value in the series with haemostasis in mice was 1096 s. The “effect on CRP-XL-induced platelet aggregation in washed platelets” value in the series on human washed platelets was “inhibited CRP-XL-induced platelet aggregation in a concentration-dependent manner”. Moreover, the “fraction bound to plasma (fb)” value in series [4] (TRANSIL XL HSA binding kit) is under 29.6%. Moreover, in series [4] (TRANSIL XL HSA binding kit, 50 µM compound, read-out: binding affinity (Kd) to HSA), the Kd stood at 1400 µM.
